# Measurements: patent publication US20100297262A1, “[…] ACTIVE COMPOSITIONS COMPRISING OXIDATIVE STRESS MODULATORS (OSM), NEW CHEMICAL […], COMPOSITIONS AND USES” (COLBY PHARMACEUTICAL COMPANY, priority 2009, published 2010)
# Like-named read-outs stand apart in the source and are kept apart here.
# How the values were obtained:
# [1] = test system: LNCaP cells; conditions: cited from earlier work
# [2] = test system: siSSAT clone; experiment: ROS production in siSSAT clone; assay type: cell-based, human; conditions: R1881 treatment
# [3] = test system: LNCaP cells transfected with the control vector containing scrambled sequence; experiment: ROS production in vector control cells; assay type: cell-based, human; conditions: R1881 treatment
# [4] = test system: acetyl histone H4; experiment: Western blot analysis of acetylated histones
# [5] = test system: LNCaP cells; experiment: DNA (Hoechst 33258) fluorescence cell growth assay, Example 12; assay type: cell-based, human; conditions: for cell growth (DNA fluorescence) with logarithmic increase in SAHA concentration: SAHA 0-10 μM
# [6] = patients, oral SAHA 400 mg qd, cited from earlier work
# [7] = test system: HDAC
# Description: The HDAC activity is expressed as a ratio of HDAC product fluorescence/DNA fluorescence in relative fluorescence unit (FU).
# [8] = test system: A549; experiment: DNA fluorescence cell growth assay; conditions: any concentration of SAHA
# [9] = test system: advanced non-small-cell lung cancer (NSCLC); conditions: survival improvements not significant at P=0.05; cited from earlier work
# [10] = test system: recurrent glioblastoma multiforme; conditions: compared to 4-4.4 months in earlier studies; cited from earlier work
# [11] = test system: HT-29; experiment: DNA fluorescence cell growth assay; conditions: Vitamin E pretreated
# [12] = test system: PC-3 cells; experiment: DNA fluorescence cell growth assay; conditions: SAHA below 10 μM
# [13] = test system: latently HIV infected T-Cells; conditions: cited from earlier work
# [14] = test system: MDA-MB231; experiment: DNA fluorescence cell growth assay; conditions: Vitamin E pretreated
# [15] = test system: all cell lines; experiment: DNA fluorescence cell growth assay, cell lines taken together; assay type: cell-based, human
# [16] = test system: superoxide dismutase (SOD); experiment: SOD assay; assay type: cell-based, human; conditions: pretreated with 0.05 nM or 1 nM R1881 prior to 10 μM SAHA
# [17] = test system: LNCaP cells; experiment: Cellular ROS as ratio DCF fluorescence:DNA fluorescence, Example 12
# Description: Fluorescence of oxidized DCF dye is proportional to the total cellular ROS. When DCF fluorescence is normalized with the DNA fluorescence from the same well of the 96-well plate, the ratio DCF fluorescence:DNA fluorescence is proportional to the ROS generated per cell.
# [18] = test system: NCI-H460; experiment: DNA fluorescence cell growth assay; conditions: any concentration of SAHA
# [19] = test system: LNCaP cells; experiment: LC-MS estimation of intracellular SAHA concentration; conditions: Vitamin E pretreated cells, first 24 hours
# Method: Ten μL of each extract was used for LC-MS analysis, and the assay was repeated three times.
# The solvent gradient and the flow rates were adjusted appropriately. A 5 minute post-run column wash at 10% solvent A, 90% solvent B was maintained at 0.2 ml/min. The column thermostat was maintained at 25° C. for the complete run.
# The Mass detector for the mass detection was carried out with Agilent 1100 quadruple moment bench-top mass spectrometer with electrospray ionization in the positive ion mode at 3000 V. For both the single ion MS and scanning MS/MS mode, the desolvation temperature was 340° C. with the drying gas flow rate of 12 l/min at a nebular pressure of 40 psig. […] All data were collected, stored and analyzed using Agilent software for data collection, peak detection and integration.
# [20] = test system: PC-3 cells; experiment: Cellular ROS as ratio DCF fluorescence:DNA fluorescence; conditions: 20 μM Vitamin E (non-toxic dose)
# [21] = in vivo
# Method: (§1) Pharmacokinetic (PK) studies of PMCol in mice administered 100 mg/kg PMCol p.o. or 5 mg/kg of PMCol i.v., using Liquid Chromatography-Mass Spectroscopic (LC-MS) analyses.
# [22] = Distribution and clearance of alkylTPP compounds (i.v., feeding tritiated compounds, drinking water); conditions: mice
# [23] = rat, in vivo, po
# Method: (§2) In order to test the efficacy of PMCol-C2 or Mito-PMCol-C10 in inhibiting growth of prostate tumors in vivo, the PMCol drug formulation was standardized, the route of its administration was determined and determination of the maximum tolerated dose (MTD), when administered orally or by i.v. injection.
# [24] = in vivo; conditions: mouse
# Method: as §2
# [25] = test system: LAPC4; experiment: Growth of human prostate tumor cells in culture, PMCol; assay type: cell-based
# Method: as §1
# (§3) Mito-PMCol analogs and PMCol were compared for their relative cytostatic/anti-proliferative and cytotoxic and therapeutic activities in tumor cell systems as measured by clonogenic assays and direct live and dead cell counts are performed in a hemacytometer by trypan blue dye exclusion assay or by DNA fluorescence assays following routine published procedures established in our labs.
# [26] = test system: DU-145; experiment: as above; assay type: cell-based
# Method: as §1, §3
# [27] = test system: LNCaP; experiment: as above; assay type: cell-based
# Method: as §1, §3
# [28] = test system: spontaneous TRAMP mouse tumors; experiment: TRansgenic Adenocarcinoma of Mouse Prostate (TRAMP) model; assay type: in vivo
# Method: The inhibitory effect of PMCol on prostate tumor growth is tested in the well characterized […] Adenocarcinoma of Mouse Prostate (TRAMP) model. […] Tumor development in PMCol treated animals was delayed by over 8 weeks as compared to the control animals.
# [29] = assay type: physicochemical; conditions: pH 2
# [30] = agent alone: 20 μM Vitamin E, 1 nM R1881 or 2 μM SAHA
smiles,measurement,setting,value
C[C@]1(O)CC[C@H]2[C@@H]3CCC4=CC(=O)CCC4=C3C=C[C@@]21C [R1881],cellular ROS (DCF dye oxidation) compared to 1-10 nM,"[1]; R1881 concentrations less than 0.1 nM, Ripple et al. 1997",significantly lower cellular ROS
same,cellular ROS (DCFH-DA dye oxidation) compared to 1 nM to 10 nM,"[1]; metribolone concentrations less than 1 nM, Ripple et al 1997",significantly lower cellular ROS
same,ROS production,[2],no significant effect on ROS production
same,ROS production,[3],marked increase
same,acetyl-histone H4 level,[4]; [30],little effect on the acetyl-histone H4 level
same,effect on LNCaP cell growth,[5]; 0.05 nM R1881,growth stimulatory
same,effect on LNCaP cell growth,[5]; 1 nM or above,growth inhibitory effect
"O=C(CCCCCCC(=O)Nc1ccccc1)NO [SAHA, Suberoylanilide hydroxamic acid]",serum SAHA level,[6],~349 ng/mL
same,serum SAHA level,[6]; clinically achievable,~1.3 µM
same,HDAC activity with increasing concentrations of SAHA,"[7]; R1881 untreated vector control cells, androgen-treated and untreated siSSAT cells",decreases in a similar fashion
same,HDAC activity with increasing concentrations of SAHA,[7]; vector control cells pretreated with 1 nM R1881,increases after an initial decrease
same,change of SAHA sensitivity after Vitamin E pretreatment,[8],do not show any appreciable increase in SAHA sensitivity
same,response and survival,[9],improved response rates and increased median progression free survival and overall survival
same,median overall survival,[10],5.7 months
same,SAHA sensitivity compared to Vitamin E untreated cells,[11],higher in Vitamin E pretreated cells
same,resistance of PC-3 cells to SAHA,[12],intrinsically resistant
same,effects against latently HIV infected T-Cells,[13],both in vitro and in vivo effects
same,SAHA sensitivity compared to Vitamin E untreated cells,[14],higher in Vitamin E pretreated cells
same,nature of the increase in SAHA sensitivity (formalism of Chou and Talalay),[15]; Vitamin E pretreatment followed by SAHA,synergistic
same,activity at clinically achievable serum level (~1.3 μM),[15]; cell lines untreated with Vitamin E or another similar anti-oxidant,inactive
same,sensitivity to SAHA at a concentration much below the clinically achievable serum level,"[15]; prostate, breast and colon cancer cells pretreated with anti-oxidants such as Vitamin E",highly sensitive
same,SOD activity of LNCaP cells,[16],no significant difference in the SOD activity
same,acetyl-histone H4 level,[4]; 1 nM R1881 pretreated cells + 2 μM SAHA,marked decrease
same,acetyl-histone H4 level,[4]; [30],"small, but significant increase"
same,cellular ROS (DCF/DNA fluorescence) with increase in SAHA concentration,[17]; no R1881,ROS increases
same,cellular ROS (DCF/DNA fluorescence) with increase in SAHA concentration,[17]; pretreated with 0.05 nM R1881,negligible effect on total cellular ROS levels
same,cellular ROS (DCF/DNA fluorescence) with increase in SAHA concentration,[17]; pretreated with 2 nM R1881,negligible effect on total cellular ROS levels
same,change of SAHA sensitivity after Vitamin E pretreatment,[18],do not show any appreciable increase in SAHA sensitivity
same,intracellular SAHA level,[19],no significant decrease
same,cell growth (DNA fluorescence) with logarithmic increase in SAHA concentration,[5]; no R1881,inhibited almost linearly
same,cell growth (DNA fluorescence),"[5]; normal androgen level (1 nM R1881), even at 10 μM SAHA",little effect on cell growth
same,cell growth (DNA fluorescence) with logarithmic increase in SAHA concentration,[5]; pretreated with 0.05 nM R1881,inhibited almost linearly
same,cell growth (DNA fluorescence),"[5]; pretreated with 2 nM R1881, all SAHA concentrations tested",negligible effect on cell growth
"Cc1c(C)c2c(c(C)c1OC(=O)CCC(=O)O)CC[C@@](C)(CCC[C@H](C)CCC[C@H](C)CCCC(C)C)O2 [Vitamin E, αTocopherol succinate]",acetyl histone H4 level,[4]; Vitamin E + R1881 + SAHA,almost completely restores
same,acetyl-histone H4 level,[4]; [30],little effect on the acetyl-histone H4 level
same,ROS levels,[20],markedly reduces the ROS levels
same,ROS levels,"[17]; 20 μM Vitamin E (non-toxic dose), LNCaP treated and untreated with R1881",markedly reduces the ROS levels
"CC1=C(C)C(=O)C(CCC(C)(C)O)=C(C)C1=O [PMQ, 2-(3-hydroxy-3-methylbutyl)-3,5,6-trimethyl-1,4-benzo-quinone]",time the metabolite remained in the serum,"[21]; mice, oral PMCol, last time point of PK studies",at least 24 hours
same,appearance of the LC-MS peak in serum after oral administration of PMCol,"[21]; mouse, in vivo, po",appears in serum within minutes
CC1(C)CC(OCCCCC[P+](c2ccccc2)(c2ccccc2)c2ccccc2)CC(C)(C)N1[O].[Br-] [Mito-Tempol],redistribution once in the bloodstream,[22],rapidly redistribute into organs
"Cc1c(C)c2c(c(C)c1O)CCC(C)(C)O2 [PMCol, 2,2,5,7,8-pentamethyl-6-chromanol]",DLT,[23],2 grams/kilogram/day
same,safety of administration,[24],safely administered
same,MTD,[24]; iv,7.5 mg/kg
same,MTD,[24]; po,100 mg/kg
same,oxidized metabolite,"[21]; mouse, in vivo",ring-opened PMQ
same,bioavailability in blood serum,"[21]; mouse, in vivo, iv",0.5 mg/kg
same,half-life,"[21]; mouse, in vivo, iv",2 h
same,time after injection within which serum levels went down quickly,"[21]; mouse, in vivo, iv, 5 mg/kg",≤ 2 h
same,bioavailability in blood serum,"[21]; mouse, in vivo, po",4 mg/kg
same,half-life,"[21]; mouse, in vivo, po",0.5 h
same,in vivo metabolism,"[21]; mouse, in vivo, po",oxidized in vivo to the hydroxylated-PMCol
same,time after administration within which serum levels went down quickly,"[21]; mouse, in vivo, po, 100 mg/kg",≤ 15 min
same,growth of androgen-dependent LAPC4 cells in culture,[25],inhibits the growth
same,growth of androgen-independent DU-145 cells in culture,[26],inhibits the growth
same,growth of androgen-dependent LNCaP cells in culture,[27],inhibits the growth
same,delay of tumor development as compared to the control animals,"[28]; TRAMP model, PMCol treated animals",over 8 weeks
same,growth of spontaneous TRAMP mouse tumors,"[28]; mouse, in vivo",inhibits the growth
same,acid stability,[29],lability
